Data on nine compounds can be found in US10351546B2, “Pyridin-3-yl acetic acid derivatives as inhibitors of human immunodeficiency virus replication” (priority 2015, dated 2019).

This assay has as its system NL-RLuc virus. Put plainly: Inhibition of HIV replication (NL-RLuc luciferase reporter virus in MT-2 cells). The following applies: Human immunodeficiency virus 1, MT2, 120 h. The assay is classed as cell-based. The procedure, abridged:
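The read-out is Renilla luciferase expressed by replication-competent NL-RLuc (nef partly replaced), measured 5 days after infection of MT-2 cells grown with compound dilutions in 10% FBS RPMI. Median effect equation gives EC50 from ≥2 runs; A ≤100 nM, B 100 nM–1 uM, C >1 uM.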

SMILES strings stand for the structures. Read-outs that look alike come from different tables or passages of the source.

Consider `CC(=O)NCc1nc(C)c([C@H](OC(C)(C)C)C(=O)O)c(N2CCC(C)(C)CC2)c1-c1ccc(OCCc2ccc(F)cc2)cc1` [Example 106, (S)-2-(6-(Acetamidomethyl)-4-(4,4-dimethylpiperidin-1-yl)-5-(4-(4-fluorophenethoxy)phenyl)-2-methylpyridin-3-yl)-2-(tert-butoxy)acetic acid], for which, under “read-out: Activity”, the EC50 was under 0.1 µM. Same read-out and setting: the value for `Cc1nc(CNC=O)c(-c2ccc(OCCc3ccc(F)cc3)cc2)c(N2CCC(C)(C)CC2)c1[C@H](OC(C)(C)C)C(=O)O` [Example 107, (S)-2-(tert-Butoxy)-2-(4-(4,4-dimethylpiperidin-1-yl)-5-(4-(4-fluorophenethoxy)phenyl)-6-(formamidomethyl)-2-methylpyridin-3-yl)acetic acid] was under 0.1 µM. Consider `CCOCCOCc1nc(C)c(-c2ccc(OCCc3ccc(F)cc3)cc2)c(N2CCC(C)(C)CC2)c1[C@H](OC(C)(C)C)C(=O)O` [Example 108, (S)-2-(tert-Butoxy)-2-(4-(4,4-dimethylpiperidin-1-yl)-2-((2-ethoxyethoxy)methyl)-5-(4-(4-fluorophenethoxy)phenyl)-6-methylpyridin-3-yl)acetic acid], for which, under “read-out: Activity”, the EC50 is under 0.1 µM. As to `Cc1nc(COCC2COC2)c([C@H](OC(C)(C)C)C(=O)O)c(N2CCC(C)(C)CC2)c1-c1ccc(OCCc2ccc(F)cc2)cc1` [Example 109, (S)-2-(tert-Butoxy)-2-(4-(4,4-dimethylpiperidin-1-yl)-5-(4-(4-fluorophenethoxy)phenyl)-6-methyl-2-((oxetan-3-ylmethoxy)methyl)pyridin-3-yl)acetic acid], the EC50 is under 0.1 µM (read-out: Activity) and 0.005 µM (read-out: EC50 μM). `CCOCCOCCOCc1nc(C)c(-c2ccc(OCCc3ccc(F)cc3)cc2)c(N2CCC(C)(C)CC2)c1[C@H](OC(C)(C)C)C(=O)O` [Example 110, (S)-2-(tert-Butoxy)-2-(4-(4,4-dimethylpiperidin-1-yl)-2-((2-(2-ethoxyethoxy)ethoxy)methyl)-5-(4-(4-fluorophenethoxy)phenyl)-6-methylpyridin-3-yl)acetic acid]: the EC50 (read-out: Activity) is under 0.1 µM. `Cc1nc(COCCCOCc2ccccc2)c([C@H](OC(C)(C)C)C(=O)O)c(N2CCC(C)(C)CC2)c1-c1ccc(OCCc2ccc(F)cc2)cc1` [Example 111, (S)-2-(2-((3-(Benzyloxy)propoxy)methyl)-4-(4,4-dimethylpiperidin-1-yl)-5-(4-(4-fluorophenethoxy)phenyl)-6-methylpyridin-3-yl)-2-(tert-butoxy)acetic acid]: the EC50 (read-out: Activity) was under 0.1 µM. On the same count and under the same terms, the value for `Cc1nc(CN(C)C)c([C@H](OC(C)(C)C)C(=O)O)c(N2CCC(C)(C)CC2)c1-c1ccc(OCCc2ccc(F)cc2)cc1` [Example 112, (S)-2-(tert-Butoxy)-2-(2-((dimethylamino)methyl)-4-(4,4-dimethylpiperidin-1-yl)-5-(4-(4-fluorophenethoxy)phenyl)-6-methylpyridin-3-yl)acetic acid] was under 0.1 µM; that for `Cc1cc(F)ccc1CN1CCc2cc(-c3c(CO)nc(C)c([C@H](OC(C)(C)C)C(=O)O)c3N3CCC(C)(C)CC3)ccc2C1` [Example 113, (S)-2-(tert-Butoxy)-2-(4-(4,4-dimethylpiperidin-1-yl)-5-(2-(4-fluoro-2-methylbenzyl)-1,2,3,4-tetrahydroisoquinolin-6-yl)-6-(hydroxymethyl)-2-methylpyridin-3-yl)acetic acid] was under 0.1 µM. Turning to `CNCc1nc(C)c([C@H](OC(C)(C)C)C(=O)O)c(N2CCC(C)(C)CC2)c1-c1ccc2c(c1)CCN(Cc1ccc(F)cc1C)C2` [Example 114, (S)-2-(tert-Butoxy)-2-(4-(4,4-dimethylpiperidin-1-yl)-5-(2-(4-fluoro-2-methylbenzyl)-1,2,3,4-tetrahydroisoquinolin-6-yl)-2-methyl-6-((methylamino)methyl)pyridin-3-yl)acetic acid], the EC50 (read-out: Activity) is under 0.1 µM.
